“Also recorded” adds a separate entry of the source.
Experiments:
IGF1R [1] = target: T1, IGF1R (Homo sapiens, UniProt P08069); assay: IGF1R cellular free kinase assay (pGT substrate phosphorylation); type: biochemical; settings: partially purified IGF1R; 20 μM ATP; read-out: IC50 values of IGF1R activity in cellular free kinase assay
T1 construct: made in house
Protocol: The general protein-tyrosine kinase substrate, poly(Glu,Tyr) 4:1 (pGT), was coated onto a 96-well Maxisorp plates (Nunc) by adding 125 μl of 0.1 mg/ml pGT in PBS to each well. Plates were sealed and incubated for 16 hours at 37° C., washed once with TBST (10 mM Tris-HCl, pH 7.5, 50 mM NaCl, and 0.1% Triton X-100) and once with DDW, dried for 2-3 hours, and stored at 4° C. […] The plate was then washed with TBS with 0.2% Tween 20 (TBST) and blocked with 0.5% BSA in TBST. Mouse monoclonal anti-phosphotyrosine antibody, conjugated to Horse radish peroxidase (PT-66, 1:50000) was added to the plate. Following incubation for 45 min at room temperature, the plate was washed repeatedly with TBST. Detection was carried out with a color reagent, 2,2′-azido-bis-3-ethylbenzithiazoline-6-sulfonic acid, in citrate-phosphate buffer, pH 4.0, with 0.004% H2O2 for 10 min and monitored at 405 nm, all at room temperature. IC50 values of inhibitors were calculated using the REGRESSION program. The assay was optimized with respect to the amount of IGF-1R (partially purified from cells overexpressing IGF1R), reaction time, and ATP concentration. The signal was linear for 30 min in the range of IGF1R protein concentrations up to 35 ng/well.

IRS1 [2] = assay: IRS1 Ser-phosphorylation in YUMAC cells; type: cell-based, human; settings: metastatic melanoma YUMAC cells
Protocol: (§1) In addition, lysates were prepared from cells exposed to inhibitors at various concentrations for 24 hours in the presence or the absence of FCS without stimulation. Lysate preparation and western blot were the same as described above. Apoptosis was detected by immunoblotting with rabbit anti-PARP antibodies.

YUMAC = assay: Proliferation assay YUMAC; type: cell-based; settings: Homo sapiens; Table 4; 72 hours incubation; read-out: Inhibition of human metastatic melanoma cells, YUMAC IC50
Protocol: (§2) Various cancer cell lines (listed in table 1) were plated at a density of 1000-5000 cells/well in 96-well plates in 90111 growth medium containing 10% FCS, 100 units/ml penicillin and 100 μg/ml streptomycin. Inhibitors were added a day later in 10 μl of 1% DMSO in DDW to obtain final concentrations of 0, 0.1, 0.3, 1, 3, and 10 μM. The final concentration of DMSO (0.1% DMSO) was kept constant in all samples. Medium with inhibitors was refreshed a day and two days later. Following exposure of the cells to the inhibitors for 72 hours at 37° C., the cells were fixed in 0.5% gluteraldehyde in medium for 10 min, washed three times with DDW, once with 0.1M sodium borate buffer pH 8.5 and stained with 1% methylene blue dissolved in 0.1M borate buffer solution for 60 min. Excess dye was washed out and cell-bound dye was eluted with 200 μl/well of 0.1 M HCl. The optical density value was read at 620 nm in ELISA plate reader. The data was analyzed in Microsoft Excel, using the vehicle control as 100% proliferation. The assays were performed in triplicates. The values in table 1 represent IC50 values derived from the dose-dependent growth curves obtained.
(§3) Compounds 6, 7, 8, and 9 were tested for their inhibitory potential in cell proliferation assay. In this assay cells were exposed to increasing concentrations of the molecules (at 0.1% DMSO in all wells) a day after seeding. Medium and inhibitors were refreshed every day, and following three days of treatment, cells were fixed and stained with methylene-Blue. IC50 values were determined from the curves of the optical density against compound concentration. The assay was performed in triplicates.

[3] = test system: metastatic melanoma YUMAC cells; assay: Apoptosis (cleaved PARP) in YUMAC cells; type: cell-based, human; settings: 24 hours of exposure, 3 μM
Protocol: as §1

IRS1 [4] = assay: IRS1 Ser-phosphorylation and IRS1 levels in MCF7 cells; type: cell-based; settings: breast cancer MCF7 cells
Protocol: (§4) Tyrosine autophosphorylation of the β-subunit of IGF1R as well as downstream signaling induced by IGF1R were assayed in breast cancer MCF7 cells. Tyrosine autophosphorylation of the EGFR and the EGFR signaling was assayed in prostate cancer PC3 cells. Tyrosine autophosphorylation of the PDGFR and its signaling was assayed in fibroblasts overexpres sing PDGFR. Tyro sine autophosphorylation of the IR and its signaling was assayed in fibroblasts overexpressing IR. Cells were seeded in 6-well plates (MCF7-250,000 cells/well, PC3-150,000 cells/well, fibroblasts-140,000 cells/well) and 24 hours later medium was replaced by serum-free medium (DMEM supplemented with 100 units/ml penicillin and 100 μg/ml streptomycin). Following 20 hours of serum-starvation medium was replaced with medium containing various concentrations of the inhibitors in 0.1% DMSO for additional 4 hours. Cells were then stimulated for 5 min with 50 ng/ml IGF-1 (MCF7 cells), 20 ng/ml EGF (PC3 cells), 50 ng/ml PDGF (fibroblasts overexpressing PDGFR) or 100 nM insulin (fibroblasts overexpressing IR), washed twice with PBS and lysed by boiling sample buffer (10% glycerol, 50 mM Tris-HCl, pH 6.8, 3% SDS, and 5%, β-mercaptoethanol). Equal amounts of protein per lane were separated by 8% SDS-PAGE and transferred to a nitrocellulose membrane (Sartorius AG). Phosphorylated proteins were immunoblotted with anti-phospho-IGF1R (phosphor-IGF1R), anti-phosphotyrosine-IRS1 (phospho-IRS1), anti-phospho(T308)Akt (phospho-PKB), anti-phospho-Erk (phospho-ERK), anti-phosphotyrosine 4G10&PY20 (pY-EGFR or pY-PDGFR), anti-phospho-Ser^636/639-IRS1 (pS^636/639-IRS1) and anti-phospho-STAT3 (phospho-STAT3) antibodies. Detection was performed with horseradish peroxidase-conjugated secondary antibody using the ECL system. Blots were then stripped of antibodies, blocked with TBST with 5% low fat milk and re-probed with antibodies detecting both the phosphorylated and the non-phosphorylated corresponding proteins e.g. IGF1Rβ, IRS1, PKB, ERK, IRβ, PDGFR and Stat3.
as §1

YURIF = assay: Proliferation assay YURIF; type: cell-based; settings: Homo sapiens; Table 4; 72 hours incubation; read-out: Inhibition of human metastatic melanoma cells, YURIF IC50
Protocol: as §2, §3

IGF1R [5] = target: T1, IGF1R; assay: Inhibition of IGF1-induced signaling in intact MCF7 cells (western blot); type: cell-based; settings: 4 h exposure, IGF1 stimulation
Protocol: as §4

T1 sequence (P08069 31-1367, species assumed): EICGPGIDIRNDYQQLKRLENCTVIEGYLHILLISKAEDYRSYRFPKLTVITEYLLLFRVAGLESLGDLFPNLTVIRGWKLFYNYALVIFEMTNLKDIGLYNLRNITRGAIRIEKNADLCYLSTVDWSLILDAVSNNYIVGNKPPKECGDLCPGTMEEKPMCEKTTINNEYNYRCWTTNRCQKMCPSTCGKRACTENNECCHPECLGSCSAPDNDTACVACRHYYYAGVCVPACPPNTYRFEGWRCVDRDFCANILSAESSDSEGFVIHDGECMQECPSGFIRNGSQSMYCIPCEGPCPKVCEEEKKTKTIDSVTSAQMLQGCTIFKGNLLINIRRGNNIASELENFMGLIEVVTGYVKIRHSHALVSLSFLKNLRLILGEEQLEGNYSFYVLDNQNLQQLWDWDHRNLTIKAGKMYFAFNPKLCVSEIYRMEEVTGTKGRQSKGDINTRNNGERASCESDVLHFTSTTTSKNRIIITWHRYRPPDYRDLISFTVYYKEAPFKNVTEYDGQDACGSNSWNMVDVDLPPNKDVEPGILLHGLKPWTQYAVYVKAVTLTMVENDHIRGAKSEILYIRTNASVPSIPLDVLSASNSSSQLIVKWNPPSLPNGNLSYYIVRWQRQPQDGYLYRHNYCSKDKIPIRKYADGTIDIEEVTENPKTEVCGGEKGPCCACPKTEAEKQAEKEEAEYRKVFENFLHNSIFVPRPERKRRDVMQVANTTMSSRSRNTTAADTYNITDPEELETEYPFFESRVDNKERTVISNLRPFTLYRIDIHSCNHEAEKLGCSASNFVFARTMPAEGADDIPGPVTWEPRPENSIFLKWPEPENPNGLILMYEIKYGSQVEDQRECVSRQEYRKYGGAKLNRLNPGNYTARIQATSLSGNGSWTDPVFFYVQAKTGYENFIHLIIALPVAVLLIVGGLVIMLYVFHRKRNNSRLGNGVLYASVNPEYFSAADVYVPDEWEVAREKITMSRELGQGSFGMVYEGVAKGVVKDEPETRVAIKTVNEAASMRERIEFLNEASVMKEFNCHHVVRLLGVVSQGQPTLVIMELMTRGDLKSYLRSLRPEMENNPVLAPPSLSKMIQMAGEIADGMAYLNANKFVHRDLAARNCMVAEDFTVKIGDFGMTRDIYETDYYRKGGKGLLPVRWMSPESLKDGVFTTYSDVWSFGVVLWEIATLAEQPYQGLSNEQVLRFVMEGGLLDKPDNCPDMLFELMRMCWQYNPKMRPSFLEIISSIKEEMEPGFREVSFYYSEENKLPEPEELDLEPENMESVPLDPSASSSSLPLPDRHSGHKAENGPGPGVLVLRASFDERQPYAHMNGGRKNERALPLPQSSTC

Structure (SMILES)	IC50 (IGF1R [1]) [nM]	Inhibition of IGF1R autophosphorylation and IGF1-induced signaling (IRS1 pTyr, Akt/PKB, MAPK/ERK) (IGF1R [5])	IRS1 Ser-phosphorylation (IRS1 [2])	IC50 (YUMAC) [nM]	Cleavage of PARP (apoptosis) [3]	IRS1 Ser-phosphorylation (IRS1 [4])	IC50 (YURIF) [nM]
N#C/C(=C\c1cc(O)c(O)c(F)c1)C(=S)NCc1cc(O)c(O)c(O)c1 [Compound 12]	169						
N#C/C(=C\c1cc(O)c(O)c(Br)c1)C(=S)NCc1ccc(O)c(O)c1 [Compound 15]	115						
Oc1cc(CNC(=S)/C=C/c2cc(O)c(O)c(I)c2)cc(O)c1O [Compound 10]	33		trigger IRS1-ser phosphorylation; also recorded: detected	300	detected	trigger IRS1-ser phosphorylation	470
N#C/C(=C\c1cc(O)c(O)c(C(F)(F)F)c1)C(=S)NCc1cc(O)c(O)c(O)c1 [Compound 13]	68		trigger IRS1-ser phosphorylation; also recorded: detected	1000	detected	trigger IRS1-ser phosphorylation	870
N#C/C(=C\c1cc(O)c(O)c(Cl)c1)C(=S)NCc1cc(O)c(O)c(O)c1 [Compound 11]	30 to 200		trigger IRS1-ser phosphorylation	1200		trigger IRS1-ser phosphorylation	1200
N#C/C(=C\c1cc(O)c(O)c(I)c1)C(=S)NCc1ccc(O)c(O)c1 [Compound 16]	193						

The next lines start with results.

IC50 (IGF1R [1]) [nM]	Inhibition of IGF1R autophosphorylation and IGF1-induced signaling (IRS1 pTyr, Akt/PKB, MAPK/ERK) (IGF1R [5])	Structure (SMILES)	IRS1 Ser-phosphorylation (IRS1 [2])	IC50 (YUMAC) [nM]	Cleavage of PARP (apoptosis) [3]	IRS1 Ser-phosphorylation (IRS1 [4])	IC50 (YURIF) [nM]
196		Oc1cc(/C=C/C(=S)NCc2cc(O)c(O)c(Br)c2)cc(Br)c1O [Compound 18]					
700		N#C/C(=C\c1cccc(Br)c1)C(=S)NCc1cc(O)c(O)c(O)c1 [Compound 19]		~10000			> 10000
	had no effect on the signaling	N#C/C(=C\c1ccc2oc(=S)[nH]c2c1)C(=O)c1ccc(O)c(O)c1 [Compound 20, reference compound]					
49		N#C/C(=C\c1cc(O)c(O)c(O)c1)C(=S)NCc1cc(O)c(O)c(Br)c1 [Compound 17]		> 10000			> 10000

Reference: US8058309B2, “Protein kinase modulators and therapeutic uses thereof” (Novotyr Therapeutics Ltd., priority 2006, dated 2011)
